The values below are quoted from earlier work in patent US6642259B1, “Immune stimulating dietary supplement and method of use thereof” (Trustees of Tufts College, priority 1999, dated 2003).

In one series the test system is T cell function. The following applies: supplementation of old mice.
In another series the test system is T-cell mediated funtion. The note with it: supplementation of the elderly human.

vitamin E: the T cell function result in the series with T cell function is reported as “increased”. Moreover, in the series on T-cell mediated funtion, the “immunological responses (e.g. T-cell mediated funtion)” value is “improved”.
